# Assay results reported in ChEMBL document CHEMBL3259526, “(11)C-labeling and preliminary evaluation of vortioxetine as a PET radioligand” (Bioorg Med Chem Lett, 2014).
# Columns and labels:
# [1] = Drug uptake in Danish Landrace pig thalamus at 124 MBq, iv after 90 mins by PET analysis; assay type: ADME, organism-based, Sus scrofa; settings: in vivo, 1.5 h
# [2] = Plasma protein binding in pig plasma at 5 MBq after 2.5 hrs by equilibrium dialysis chamber method; assay type: ADME, cell-free, Sus scrofa; settings: read-out: PPB (converted)
# [3] = Drug uptake in Danish Landrace pig cortex at 124 MBq, iv after 90 mins by PET analysis; assay type: ADME, organism-based, Sus scrofa; settings: in vivo, 1.5 h
# [4] = Drug uptake in Danish Landrace pig striatum at 124 MBq, iv after 90 mins by PET analysis; assay type: ADME, organism-based, Sus scrofa; settings: in vivo, 1.5 h
# [5] = Drug uptake in Danish Landrace pig hippocampus at 124 MBq, iv after 90 mins by PET analysis; assay type: ADME, organism-based, Sus scrofa; settings: in vivo, 1.5 h
# [6] = Drug uptake in Danish Landrace pig brain at 124 MBq, iv after 60 mins by PET analysis; assay type: ADME, organism-based, Sus scrofa; settings: in vivo, 1 h
# [7] = Drug uptake in Danish Landrace pig cerebellum at 124 MBq, iv after 90 mins by PET analysis; assay type: ADME, organism-based, Sus scrofa; settings: in vivo, 1.5 h
compound,measurement,setting,value
Cc1ccc(Sc2ccccc2N2CCNCC2)c([11CH3])c1,Drug uptake,[1],Active
same,"fraction unbound at 2.5 h, 5 MBq",[2],0.02
same,Drug uptake,[3],Active
same,Drug uptake,[4],Active
same,Drug uptake,[5],Active
same,Drug uptake,[6],Active
same,Drug uptake,[7],Active
